Holding throughout (type): cell-based
Assay [1] deals with MCF-7. As to the kind of experiment: MTT assay, MCF-7 breast cancer cells. The conditions noted are these: Homo sapiens, MCF7, 10 μM, 72 h after the treatment, mean of three independent experiments, read-out: Percentage of cell viability MCF-7. The protocol: (§1) The prepared compounds 1–126 were tested on three breast cancer cell lines namely, MDA-MB231, SKBR-3 and MCF-7 using MTT assay. SKBR-3 and MCF-7 cell lines are estrogen and progesterone hormone positive cell lines often used as a model for the hormone therapy.[18] MDA-MB231 is triple negative breast cancer cell line, which is negative to estrogen and progesterone receptors and human epidermal growth factor receptor 2, a perfect model for chemotherapy.[18] Initially, all the prepared compounds 1–126 were tested on these three cancer cell lines at the screening concentration (10 μM) and percentage of cell viability was calculated 72 h after the treatment (Table 1).
(§2) The growth inhibitory effect of the compounds was determined on breast tumor cell line (MDA-MB231, SKBR-3 and MCF-7) at different concentrations with methotrexate and nilotinib as positive controls (Table 2).
(§3) The cytotoxic activity of 6,N^2-diaryl-1,3,5-triazine-2,4-diamines (1–126) was evaluated against three breast carcinoma cell lines (MDA-MB231, SKBR-3, and MCF-7) and normal breast cell line (MCF-10A) by MTT assay.[22] All cells were obtained from the American Type Culture Collection and were grown in 10% fetal bovine serum and 1% pen-strep antibiotic supplemented media (DMEM for MDA-MB231 and SKBR-3, RPMI for MCF-7, and MEGM for MCF-10A). For MTT assay, 20 000 to 75 000 cells per mL (based on the doubling time for each cell line) were seeded in 96 well plates and incubated for 24 h at 37 °C in 5% CO2 incubator. Then, compounds at different concentrations were added followed by the incubation at 37 °C for 72 h. After that, MTT solution (0.5 mg mL^−1) was added and the plates were incubated for another 4 h. The supernatant was then discarded and 100 μL of DMSO was added to each well. The plates were then read by Tecan NanoQuant (model: infinite m200 pro) plate reader and absorbance was measured at 570 nm. GI50 values were calculated using sigmoidal concentration–response curves (see ESI ^†) generated using the GraphPad Prism 7 program. Three independent experiments were carried out and the data were represented as mean of the three experiments.
For orientation: Tetrazolium assays rely on reduction of a dye to a coloured formazan, in cell work by metabolically active cells.

The subject of assay [2] is MDA-MB231. As to the kind of experiment: MTT assay, MDA-MB231 breast cancer cells. The conditions noted are these: Homo sapiens, MDA-MB-231; 10 μM, 72 h after the treatment, MTT, mean of three independent experiments; read-out: Percentage of cell viability MDA-MB231. The method, then:
as §1, §2, §3

The subject of assay [3] is SKBR-3. As to the kind of experiment: MTT assay, SKBR-3 breast cancer cells. The conditions noted are these: Homo sapiens, SK-BR-3; 10 μM, 72 h after the treatment, MTT, mean of three independent experiments; read-out: Percentage of cell viability SKBR-3. The method, then: as §1, §2, §3

Structures are written as SMILES.

On to `Cc1ccc(Nc2nc(N)nc(-c3ccc(C)cc3)n2)cc1` [Compound 64], for which the viability at 10 µM amounted to 86% in assay [1], 59% in assay [2] and 92% in assay [3].
Turning to `Nc1nc(Nc2ccc(Cl)cc2)nc(-c2ccc(Cl)cc2)n1` [Compound 39], the viability at 10 µM in assay [1] was determined as 100%; in assay [2], 97%; in assay [3], 100%.
Regarding `Cc1ccc(Nc2nc(N)nc(-c3ccc(C(F)(F)F)cc3)n2)cc1` [Compound 86], the viability at 10 µM in assay [1] amounted to 83%; in assay [2], 54%; in assay [3] it was 95%.
For `Nc1nc(Nc2ccccc2Cl)nc(-c2ccc(Cl)cc2)n1` [Compound 37], in that order: 99%, 99% and 89%.
As to `Nc1nc(Nc2cccnc2)nc(-c2ccccc2)n1` [Compound 12], the viability at 10 µM in assay [1] was found to be 87%; in assay [2], 59%; in assay [3], 78%.
For `CC(C)c1ccc(Nc2nc(N)nc(-c3ccc(N(C)C)cc3)n2)cc1` [Compound 104], in that order: 100%, 70% and 87%.
For `Nc1nc(Nc2ccccc2F)nc(-c2ccc(C(F)(F)F)cc2)n1` [Compound 83] the same measures were 93%, 55% and 71%.
For `Cc1ccc(-c2nc(N)nc(Nc3ccc(Br)cc3)n2)cc1` [Compound 63], the viability at 10 µM was found to be 93% in assay [1], 87% in assay [2] and 100% in assay [3].
As to `Nc1nc(Nc2cccnc2)nc(-c2cccs2)n1` [Compound 126], the viability at 10 µM stood at 86% in assay [1], 100% in assay [2] and 91% in assay [3].
For `CC(C)(C)c1ccc(-c2nc(N)nc(Nc3ccc(Br)cc3)n2)cc1` [Compound 108] the same measures were 99%, 59% and 98%.
Turning to `COc1ccc(Nc2nc(N)nc(-c3cccs3)n2)cc1` [Compound 123, N ^2-(4-Methoxyphenyl)-6-(thiophen-2-yl)-1,3,5-triazine-2,4-diamine], the viability at 10 µM turned out to be 80% in assay [1], 93% in assay [2] and 88% in assay [3].
For `COc1ccc(Nc2nc(N)nc(-c3ccc(Br)cc3)n2)cc1` [Compound 52], in that order: 100%, 56% and 91%.
For `Nc1nc(Nc2cccc(Cl)c2)nc(-c2ccc(Cl)cc2)n1` [Compound 38], in that order: 84%, 99% and 92%.
For `Cc1ccc(-c2nc(N)nc(Nc3ccc(C(C)C)cc3)n2)cc1` [Compound 68], in that order: 100%, 76% and 91%.
On to `Nc1nc(Nc2ccc(Br)cc2)nc(-c2ccc(OC(F)(F)F)cc2)n1` [Compound 93], for which the viability at 10 µM in assay [1] worked out at 90%; in assay [2], 83%; in assay [3], 96%.
As to `Nc1nc(Nc2ccc(F)cc2)nc(-c2ccc(F)cc2)n1` [Compound 23], the viability at 10 µM in assay [1] is 93%; in assay [2], 81%; in assay [3], 100%.
For `Nc1nc(Nc2ccc(OC(F)(F)F)cc2)nc(-c2cccs2)n1` [Compound 124] the same measures were 85%, 100% and 86%.
For `Nc1nc(Nc2ccc(Br)cc2)nc(-c2ccc(Cl)cc2)n1` [Compound 40] the same measures were 92%, 80% and 100%.
Turning to `Cc1ccc(-c2nc(N)nc(Nc3cccnc3)n2)cc1` [Compound 69], the viability at 10 µM in assay [1] worked out at 88%; in assay [2], 74%; in assay [3], 79%.
For `COc1ccccc1Nc1nc(N)nc(-c2ccc(F)cc2)n1` [Compound 29] the same measures were 96%, 60% and 81%.
For `Nc1nc(Nc2ccc(OC(F)(F)F)cc2)nc(-c2ccc(F)cc2)n1` [Compound 31], the viability at 10 µM in assay [1] was 87%; in assay [2], 88%; in assay [3], 92%.
For `Nc1nc(Nc2ccccc2Cl)nc(-c2ccc(OC(F)(F)F)cc2)n1` [Compound 92], in that order: 96%, 74% and 86%.
For `Nc1nc(Nc2ccccc2)nc(-c2ccc(F)cc2)n1` [Compound 21], in that order: 100%, 83% and 94%.
For `COc1ccc(-c2nc(N)nc(Nc3ccc(C(C)C)cc3)n2)cc1` [Compound 80], in that order: 100%, 92% and 86%.
As to `Cc1cccc(-c2nc(N)nc(Nc3ccc(Cl)cc3)n2)c1` [Compound 54], the viability at 10 µM in assay [1] was 76%; in assay [2] it was 100%; in assay [3] it was 93%.
For `Nc1nc(Nc2ccc(Cl)cc2)nc(-c2cccs2)n1` [Compound 119], in that order: 98%, 100% and 89%.
For `Cc1ccc(Nc2nc(N)nc(-c3ccc(OCc4ccccc4)cc3)n2)cc1` [Compound 113], in that order: 100%, 82% and 94%.
For `Cc1ccc(Nc2nc(N)nc(-c3ccc(Br)cc3)n2)cc1` [Compound 50] the same measures were 88%, 55% and 93%.
On to `COc1ccc(Nc2nc(N)nc(-c3ccccc3)n2)cc1` [Compound 9], for which the viability at 10 µM in assay [1] is 84%; in assay [2], 98%; in assay [3] it was 96%.
For `Nc1nc(Nc2ccc(Br)cc2)nc(-c2ccc(F)cc2)n1` [Compound 27] the same measures were 94%, 96% and 100%.
For `Nc1nc(Nc2ccccc2F)nc(-c2ccc(Cl)cc2)n1` [Compound 35] the same measures were 93%, 82% and 99%.
For `Nc1nc(Nc2ccccc2F)nc(-c2ccc(OC(F)(F)F)cc2)n1` [Compound 90] the same measures were 90%, 60% and 80%.
Take `Nc1nc(Nc2ccccc2Cl)nc(-c2ccc(Br)cc2)n1` [Compound 48]: the viability at 10 µM in assay [1] was determined as 100%; in assay [2], 90%; in assay [3], 93%.
For `Nc1nc(Nc2ccccc2)nc(-c2cccs2)n1` [Compound 115] the same measures were 91%, 100% and 87%.
Regarding `CC(C)c1ccc(Nc2nc(N)nc(-c3cccc(F)c3)n2)cc1` [Compound 20], the viability at 10 µM in assay [1] stood at 92%; in assay [2], 100%; in assay [3], 100%.
For the compound `CC(C)(C)c1ccc(-c2nc(N)nc(Nc3ccc(F)cc3)n2)cc1` [Compound 106], the viability at 10 µM turned out to be 88% in assay [1], 97% in assay [2] and 84% in assay [3].
For `Nc1nc(Nc2ccccc2F)nc(-c2cccs2)n1` [Compound 116, N ^2-(2-Fluorophenyl)-6-(thiophen-2-yl)-1,3,5-triazine-2,4-diamine] the same measures were 90%, 98% and 78%.
For `Nc1nc(Nc2ccc(Cl)cc2)nc(-c2cccc(F)c2)n1` [Compound 15], the viability at 10 µM in assay [1] amounted to 89%; in assay [2], 100%; in assay [3], 100%.
As to `CC(C)c1ccc(Nc2nc(N)nc(-c3ccccc3)n2)cc1` [Compound 11], the values for the viability at 10 µM in assay [1], in assay [2] and in assay [3] were 99%, 99% and 86%, respectively.

A word on the viability: it is a read-out of living cells in per cent, often relative to untreated cells.

The values are drawn from paper PMC9050923, “6,N^2-Diaryl-1,3,5-triazine-2,4-diamines: synthesis, antiproliferative activity and 3D-QSAR modeling” (RSC Advances, 2020).
